According to ChEMBL document CHEMBL3526057 (Drug Metab Dispos, 2011):

Legend:
Format in all cases: ADME
Cytochrome P450 2C19 [1] = molecular target: T1, Cytochrome P450 2C19 (Homo sapiens, UniProt P33261); experiment: Activity of human recombinant CYP2C19.1B mutant expressed in Saccharomyces cerevisiae BJ5457 assessed as intrinisic clearance foromeprazole 5'-hydroxylation per pmol protein after 60 mins; conditions: recombinant enzyme, 1 h
Cytochrome P450 2C19 [2] = molecular target: Cytochrome P450 2C19 (Homo sapiens, UniProt P33261, A161P); experiment: Activity of human recombinant CYP2C19 A161P mutant expressed in Saccharomyces cerevisiae BJ5457 assessed asomeprazole 5'-hydroxylation after 60 mins; conditions: recombinant enzyme, 1 h
Cytochrome P450 2C19 [3] = molecular target: T1, Cytochrome P450 2C19; experiment: Activity of human recombinant CYP2C19.1B mutant expressed in Saccharomyces cerevisiae BJ5457 assessed as omeprazole 5'-hydroxylation per pmol protein at 100 uM after 60 mins; conditions: recombinant enzyme, 1 h
Cytochrome P450 2C19 [4] = molecular target: T2, Cytochrome P450 2C19 (Homo sapiens, UniProt P33261, R150H); experiment: Activity of human recombinant CYP2C19.11 mutant expressed in Saccharomyces cerevisiae BJ5457 assessed as omeprazole 5'-hydroxylation per pmol protein at 100 uM after 60 mins; conditions: recombinant enzyme, 1 h
Cytochrome P450 2C19 [5] = molecular target: Cytochrome P450 2C19 (Homo sapiens, UniProt P33261, W212C); experiment: Activity of human recombinant CYP2C19 W212C mutant expressed in Saccharomyces cerevisiae BJ5457 assessed as omeprazole 5'-hydroxylation per pmol protein at 5 uM after 60 mins; conditions: recombinant enzyme, 1 h
Cytochrome P450 2C19 [6] = molecular target: T3, Cytochrome P450 2C19 (Homo sapiens, UniProt P33261, L17P); experiment: Activity of human recombinant CYP2C19.14 mutant expressed in Saccharomyces cerevisiae BJ5457 assessed as omeprazole 5'-hydroxylation per pmol protein at 5 uM after 60 mins; conditions: recombinant enzyme, 1 h
Cytochrome P450 2C19 [7] = molecular target: T1, Cytochrome P450 2C19; experiment: Activity of human recombinant CYP2C19.1B mutant expressed in Saccharomyces cerevisiae BJ5457 assessed asomeprazole 5'-hydroxylation per pmol protein after 60 mins; conditions: recombinant enzyme, 1 h
Cytochrome P450 2C19 [8] = molecular target: T4, Cytochrome P450 2C19 (Homo sapiens, UniProt P33261, E92D); experiment: Activity of human recombinant CYP2C19 E92D mutant expressed in Saccharomyces cerevisiae BJ5457 assessed as omeprazole 5'-hydroxylation per pmol protein at 100 uM after 60 mins; conditions: recombinant enzyme, 1 h
Cytochrome P450 2C19 [9] = molecular target: T5, Cytochrome P450 2C19 (Homo sapiens, UniProt P33261, R410C); experiment: Activity of human recombinant CYP2C19.13 mutant expressed in Saccharomyces cerevisiae BJ5457 assessed asomeprazole 5'-hydroxylation per pmol protein after 60 mins; conditions: recombinant enzyme, 1 h
Cytochrome P450 2C19 [10] = molecular target: T5, Cytochrome P450 2C19; experiment: Activity of human recombinant CYP2C19.13 mutant expressed in Saccharomyces cerevisiae BJ5457 assessed as omeprazole 5'-hydroxylation per pmol protein at 100 uM after 60 mins; conditions: recombinant enzyme, 1 h
Cytochrome P450 2C19 [11] = molecular target: T1, Cytochrome P450 2C19; experiment: Activity of human recombinant CYP2C19.1A mutant expressed in Saccharomyces cerevisiae BJ5457 assessed as omeprazole 5'-hydroxylation per pmol protein at 100 uM after 60 mins; conditions: recombinant enzyme, 1 h
Cytochrome P450 2C19 [12] = molecular target: T1, Cytochrome P450 2C19; experiment: Activity of human recombinant CYP2C19.1B mutant expressed in Saccharomyces cerevisiae BJ5457 assessed as omeprazole 5'-hydroxylation per pmol protein at 5 uM after 60 mins; conditions: recombinant enzyme, 1 h
Cytochrome P450 2C19 [13] = molecular target: T1, Cytochrome P450 2C19; experiment: Activity of human recombinant CYP2C19.8 mutant expressed in Saccharomyces cerevisiae BJ5457 assessed as omeprazole 5'-hydroxylation per pmol protein at 100 uM after 60 mins; conditions: recombinant enzyme, 1 h
Cytochrome P450 2C19 [14] = molecular target: Cytochrome P450 2C19 (Homo sapiens, UniProt P33261, F168L); experiment: Activity of human recombinant CYP2C19 F168L mutant expressed in Saccharomyces cerevisiae BJ5457 assessed as intrinisic clearance foromeprazole 5'-hydroxylation per pmol protein after 60 mins; conditions: recombinant enzyme, 1 h
[15] = molecular target: CYP2C19.14 (CYP2C19 variant) (Homo sapiens, UniProt P33261, L17P); experiment: Activity of human recombinant CYP2C19.14 mutant expressed in Saccharomyces cerevisiae BJ5457 assessed asomeprazole 5'-hydroxylation after 60 mins; conditions: probe omeprazole (5'-hydroxylation)
Cytochrome P450 2C19 [16] = molecular target: Cytochrome P450 2C19 (Homo sapiens, UniProt P33261, D360N); experiment: Activity of human recombinant CYP2C19 D360N mutant expressed in Saccharomyces cerevisiae BJ5457 assessed asomeprazole 5'-hydroxylation after 60 mins; conditions: recombinant enzyme, 1 h
Cytochrome P450 2C19 [17] = molecular target: T6, Cytochrome P450 2C19 (Homo sapiens, UniProt P33261, E122A); experiment: Activity of human recombinant CYP2C19 E122A mutant expressed in Saccharomyces cerevisiae BJ5457 assessed asomeprazole 5'-hydroxylation per pmol protein after 60 mins; conditions: recombinant enzyme, 1 h
Cytochrome P450 2C19 [18] = molecular target: Cytochrome P450 2C19 (Homo sapiens, UniProt P33261, R144H); experiment: Activity of human recombinant CYP2C19.9 mutant expressed in Saccharomyces cerevisiae BJ5457 assessed as intrinisic clearance foromeprazole 5'-hydroxylation per pmol protein after 60 mins; conditions: recombinant enzyme, 1 h
Cytochrome P450 2C19 [19] = molecular target: Cytochrome P450 2C19 (Homo sapiens, UniProt P33261, R433W); experiment: Activity of human recombinant CYP2C19.5B mutant expressed in Saccharomyces cerevisiae BJ5457 assessed as omeprazole 5'-hydroxylation per pmol protein at 5 uM after 60 mins; conditions: recombinant enzyme, 1 h
Cytochrome P450 2C19 [20] = molecular target: T6, Cytochrome P450 2C19; experiment: Activity of human recombinant CYP2C19 E122A mutant expressed in Saccharomyces cerevisiae BJ5457 assessed asomeprazole 5'-hydroxylation after 60 mins; conditions: recombinant enzyme, 1 h
Cytochrome P450 2C19 [21] = molecular target: T2, Cytochrome P450 2C19; experiment: Activity of human recombinant CYP2C19.11 mutant expressed in Saccharomyces cerevisiae BJ5457 assessed asomeprazole 5'-hydroxylation after 60 mins; conditions: recombinant enzyme, 1 h
Cytochrome P450 2C19 [22] = molecular target: T7, Cytochrome P450 2C19 (Homo sapiens, UniProt P33261, M74T); experiment: Activity of human recombinant CYP2C19 M74T mutant expressed in Saccharomyces cerevisiae BJ5457 assessed asomeprazole 5'-hydroxylation per pmol protein after 60 mins; conditions: recombinant enzyme, 1 h
Cytochrome P450 2C19 [23] = molecular target: T7, Cytochrome P450 2C19; experiment: Activity of human recombinant CYP2C19 M74T mutant expressed in Saccharomyces cerevisiae BJ5457 assessed asomeprazole 5'-hydroxylation after 60 mins; conditions: recombinant enzyme, 1 h
Cytochrome P450 2C19 [24] = molecular target: T8, Cytochrome P450 2C19 (Homo sapiens, UniProt P33261, V331I/R442C); experiment: Activity of human recombinant CYP2C19.16 mutant expressed in Saccharomyces cerevisiae BJ5457 assessed as omeprazole 5'-hydroxylation per pmol protein at 100 uM after 60 mins; conditions: recombinant enzyme, 1 h
Cytochrome P450 2C19 [25] = molecular target: T3, Cytochrome P450 2C19; experiment: Activity of human recombinant CYP2C19.14 mutant expressed in Saccharomyces cerevisiae BJ5457 assessed asomeprazole 5'-hydroxylation per pmol protein after 60 mins; conditions: recombinant enzyme, 1 h
Cytochrome P450 2C19 [26] = molecular target: T9, Cytochrome P450 2C19 (Homo sapiens, UniProt P33261, I19L); experiment: Activity of human recombinant CYP2C19.15 mutant expressed in Saccharomyces cerevisiae BJ5457 assessed asomeprazole 5'-hydroxylation after 60 mins; conditions: recombinant enzyme, 1 h
[27] = Activity of human recombinant CYP2C19.6 mutant expressed in Saccharomyces cerevisiae BJ5457 assessed as omeprazole 5'-hydroxylation per pmol protein at 5 uM after 60 mins; conditions: recombinant enzyme, 1 h
Cytochrome P450 2C19 [28] = molecular target: T8, Cytochrome P450 2C19; experiment: Activity of human recombinant CYP2C19.16 mutant expressed in Saccharomyces cerevisiae BJ5457 assessed asomeprazole 5'-hydroxylation after 60 mins; conditions: recombinant enzyme, 1 h
Cytochrome P450 2C19 [29] = molecular target: T7, Cytochrome P450 2C19; experiment: Activity of human recombinant CYP2C19 M74T mutant expressed in Saccharomyces cerevisiae BJ5457 assessed as omeprazole 5'-hydroxylation per pmol protein at 100 uM after 60 mins; conditions: recombinant enzyme, 1 h
Cytochrome P450 2C19 [30] = molecular target: T4, Cytochrome P450 2C19; experiment: Activity of human recombinant CYP2C19 E92D mutant expressed in Saccharomyces cerevisiae BJ5457 assessed as omeprazole 5'-hydroxylation per pmol protein at 5 uM after 60 mins; conditions: recombinant enzyme, 1 h
Cytochrome P450 2C19 [31] = molecular target: T9, Cytochrome P450 2C19; experiment: Activity of human recombinant CYP2C19.15 mutant expressed in Saccharomyces cerevisiae BJ5457 assessed as intrinisic clearance foromeprazole 5'-hydroxylation per pmol protein after 60 mins; conditions: recombinant enzyme, 1 h

SMILES: COc1ccc2[nH]c([S+]([O-])Cc3ncc(C)c(OC)c3C)nc2c1 (stereo unspecified) [OMEPRAZOLE]
- CL (Cytochrome P450 2C19 [1]): 1.24 µL/min
- Km (Cytochrome P450 2C19 [2]): 6.68 µM
- Drug metabolism (Cytochrome P450 2C19 [3]): 5.36 pmol/min
- Drug metabolism (Cytochrome P450 2C19 [4]): 6.38 pmol/min
- Drug metabolism (Cytochrome P450 2C19 [5]): 0.58 pmol/min
- Drug metabolism (Cytochrome P450 2C19 [6]): 2.85 pmol/min
- Vmax (Cytochrome P450 2C19 [7]): 5.12 pmol/min
- Drug metabolism (Cytochrome P450 2C19 [8]): 7.02 pmol/min
- Vmax (Cytochrome P450 2C19 [9]): 7.83 pmol/min
- Drug metabolism (Cytochrome P450 2C19 [10]): 8.55 pmol/min
- Drug metabolism (Cytochrome P450 2C19 [11]): 5.87 pmol/min
- Drug metabolism (Cytochrome P450 2C19 [12]): 2.73 pmol/min
- Drug metabolism (Cytochrome P450 2C19 [13]): 0.72 pmol/min
- CL (Cytochrome P450 2C19 [14]): 0.94 µL/min
- Km at 1 h [15]: 4.3 µM
- Km (Cytochrome P450 2C19 [16]): 7.81 µM
- Vmax (Cytochrome P450 2C19 [17]): 4.89 pmol/min
- CL (Cytochrome P450 2C19 [18]): 0.62 µL/min
- Drug metabolism (Cytochrome P450 2C19 [19]): metabolite_not_detected
- Km (Cytochrome P450 2C19 [20]): 12.3 µM
- Km (Cytochrome P450 2C19 [21]): 4.91 µM
- Vmax (Cytochrome P450 2C19 [22]): 4.03 pmol/min
- Km (Cytochrome P450 2C19 [23]): 3.62 µM
- Drug metabolism (Cytochrome P450 2C19 [24]): 1.41 pmol/min
- Vmax (Cytochrome P450 2C19 [25]): 8.05 pmol/min
- Km (Cytochrome P450 2C19 [26]): 6.78 µM
- Drug metabolism [27]: metabolite_not_detected
- Km (Cytochrome P450 2C19 [28]): 4.17 µM
- Drug metabolism (Cytochrome P450 2C19 [29]): 4.27 pmol/min
- Drug metabolism (Cytochrome P450 2C19 [30]): 2.95 pmol/min
- CL (Cytochrome P450 2C19 [31]): 1.21 µL/min
